Key:
Assay type in all cases: cell-based
BaF3 = experiment: Inhibition of CCDC6-RET V804M mutant fusion protein (unknown origin) expressed in mouse BaF3 cells assessed as reduction in cell proliferation measured after 48 hrs by MTS assay; conditions: Homo sapiens
[1] = tested on: Kinesin-1 heavy chain/ Tyrosine-protein kinase receptor RET (Homo sapiens), P07949+P33176 [V804M]; experiment: Inhibition of KIF5B-RET V804M mutant fusion protein (unknown origin) expressed in mouse BaF3 cells assessed as reduction in cell proliferation measured after 48 hrs by MTS assay
[2] = target: T1, Coiled-coil domain-containing protein 6/Tyrosine-protein kinase receptor RET (Homo sapiens) (UniProt P07949+Q16204); experiment: Inhibition of CCDC6-RET fusion protein (unknown origin) expressed in mouse BaF3 cells assessed as reduction in cell proliferation measured after 48 hrs by MTS assay
T1 sequence (P07949 29-1114 limits assumed): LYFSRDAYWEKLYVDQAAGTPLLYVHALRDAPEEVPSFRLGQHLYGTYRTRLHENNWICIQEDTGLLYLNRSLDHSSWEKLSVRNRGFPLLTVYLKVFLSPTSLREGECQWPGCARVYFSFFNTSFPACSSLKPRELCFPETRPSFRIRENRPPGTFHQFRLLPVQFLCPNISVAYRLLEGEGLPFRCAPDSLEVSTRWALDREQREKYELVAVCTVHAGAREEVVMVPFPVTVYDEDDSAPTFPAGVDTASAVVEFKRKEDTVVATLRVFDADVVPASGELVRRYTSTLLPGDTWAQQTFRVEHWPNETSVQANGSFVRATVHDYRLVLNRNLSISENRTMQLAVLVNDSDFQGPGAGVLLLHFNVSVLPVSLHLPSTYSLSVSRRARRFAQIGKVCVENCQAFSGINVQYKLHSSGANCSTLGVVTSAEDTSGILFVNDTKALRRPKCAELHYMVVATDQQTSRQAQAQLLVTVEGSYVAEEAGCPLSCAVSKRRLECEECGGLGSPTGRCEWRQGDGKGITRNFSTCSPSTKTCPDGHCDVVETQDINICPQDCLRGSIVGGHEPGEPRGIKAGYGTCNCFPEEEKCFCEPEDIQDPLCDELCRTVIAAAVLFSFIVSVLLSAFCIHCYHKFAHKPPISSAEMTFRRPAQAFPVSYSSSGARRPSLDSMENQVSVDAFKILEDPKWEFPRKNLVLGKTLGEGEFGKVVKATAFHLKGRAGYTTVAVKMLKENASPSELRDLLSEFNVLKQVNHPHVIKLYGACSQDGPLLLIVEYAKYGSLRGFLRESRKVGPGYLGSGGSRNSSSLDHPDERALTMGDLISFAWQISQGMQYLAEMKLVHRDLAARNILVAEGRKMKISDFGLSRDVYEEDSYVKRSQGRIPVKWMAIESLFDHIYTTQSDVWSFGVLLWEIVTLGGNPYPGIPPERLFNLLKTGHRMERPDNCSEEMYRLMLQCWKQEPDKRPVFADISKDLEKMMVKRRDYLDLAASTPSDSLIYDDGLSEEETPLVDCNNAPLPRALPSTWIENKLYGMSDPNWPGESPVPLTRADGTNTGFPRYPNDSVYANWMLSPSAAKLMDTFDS
T1 sequence (Q16204 2-474 partner limits assumed): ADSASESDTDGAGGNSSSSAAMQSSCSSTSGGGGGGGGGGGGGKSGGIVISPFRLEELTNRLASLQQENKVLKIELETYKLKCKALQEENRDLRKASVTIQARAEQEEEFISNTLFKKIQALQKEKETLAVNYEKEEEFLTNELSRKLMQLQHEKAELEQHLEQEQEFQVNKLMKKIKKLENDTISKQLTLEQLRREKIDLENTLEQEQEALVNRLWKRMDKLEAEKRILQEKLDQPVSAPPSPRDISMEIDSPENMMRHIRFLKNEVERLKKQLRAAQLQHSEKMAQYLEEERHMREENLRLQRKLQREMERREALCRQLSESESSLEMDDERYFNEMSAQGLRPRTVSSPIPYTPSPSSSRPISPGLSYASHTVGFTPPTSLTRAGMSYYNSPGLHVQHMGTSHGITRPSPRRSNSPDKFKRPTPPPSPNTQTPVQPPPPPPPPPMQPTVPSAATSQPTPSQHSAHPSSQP

[3] = Cytotoxicity against mouse BaF3 cells assessed as reduction in cell proliferation measured after 48 hrs by MTS assay
[4] = target: T2, Kinesin-1 heavy chain/ Tyrosine-protein kinase receptor RET (Homo sapiens) (UniProt P07949+P33176); experiment: Inhibition of KIF5B-RET fusion protein (unknown origin) expressed in mouse BaF3 cells assessed as reduction in cell proliferation measured after 48 hrs by MTS assay
T2 sequence (P07949 29-1114 limits assumed): as the sequence (P07949 29-1114 limits assumed) above
T2 sequence (P33176 2-963 partner limits assumed): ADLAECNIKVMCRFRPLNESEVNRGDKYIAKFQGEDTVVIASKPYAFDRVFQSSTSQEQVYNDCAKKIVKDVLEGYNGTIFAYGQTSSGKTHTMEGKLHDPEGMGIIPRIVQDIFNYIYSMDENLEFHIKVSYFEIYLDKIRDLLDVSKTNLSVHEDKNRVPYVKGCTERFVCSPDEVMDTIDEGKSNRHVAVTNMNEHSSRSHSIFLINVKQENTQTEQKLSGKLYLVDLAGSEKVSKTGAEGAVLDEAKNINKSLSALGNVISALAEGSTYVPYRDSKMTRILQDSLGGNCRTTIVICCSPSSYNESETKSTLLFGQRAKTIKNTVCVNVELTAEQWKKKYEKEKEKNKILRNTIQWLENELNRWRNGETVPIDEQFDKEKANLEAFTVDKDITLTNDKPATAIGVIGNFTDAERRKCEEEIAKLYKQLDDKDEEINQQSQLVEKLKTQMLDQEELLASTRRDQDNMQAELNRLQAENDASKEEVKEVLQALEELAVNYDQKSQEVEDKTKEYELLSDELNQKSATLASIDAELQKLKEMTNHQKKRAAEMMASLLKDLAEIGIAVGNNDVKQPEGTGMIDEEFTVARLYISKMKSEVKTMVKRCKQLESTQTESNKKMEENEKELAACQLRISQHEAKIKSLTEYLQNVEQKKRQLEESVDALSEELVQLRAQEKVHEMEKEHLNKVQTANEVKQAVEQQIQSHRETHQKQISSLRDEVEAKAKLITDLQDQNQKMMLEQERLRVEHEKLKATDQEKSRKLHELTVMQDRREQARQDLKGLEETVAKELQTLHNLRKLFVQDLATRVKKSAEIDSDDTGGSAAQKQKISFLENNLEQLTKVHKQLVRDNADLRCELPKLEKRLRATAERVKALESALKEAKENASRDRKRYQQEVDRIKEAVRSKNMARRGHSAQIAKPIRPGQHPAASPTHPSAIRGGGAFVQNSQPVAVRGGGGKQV

[5] = target: T2, Kinesin-1 heavy chain/ Tyrosine-protein kinase receptor RET (Homo sapiens); experiment: Inhibition of KIF5B-RET fusion protein (unknown origin) expressed in mouse BaF3 cells assessed as cell survival at 2 uM measured after 48 hrs by MTS assay relative to control
[6] = target: T1, Coiled-coil domain-containing protein 6/Tyrosine-protein kinase receptor RET (Homo sapiens); experiment: Inhibition of CCDC6-RET fusion protein (unknown origin) expressed in mouse BaF3 cells assessed as cell survival at 2 uM measured after 48 hrs by MTS assay relative to control

Structure (SMILES) | GI50 (BaF3) [nM] | GI50 [1] [nM] | GI50 [2] [nM] | GI50 [4] [nM] | GI50 at 48 h [3] [nM] | Survival [5] [%] | Survival [6] [%]
CN1CCN(Cc2ccc(C(=O)Nc3cc(Oc4nc(-c5ccncc5)nc5[nH]ncc45)ccc3Cl)cc2C(F)(F)F)CC1 | 7380 | 6520 | 13 | 22 | 1010 |  | 
CN1CCN(Cc2ccc(C(=O)Nc3cccc(Oc4nc(-c5cccnc5)nc5c4cnn5C)c3)cc2C(F)(F)F)CC1 |  |  | 1110 | 953 |  |  | 
CN1CCN(Cc2ccc(C(=O)Nc3cc(Oc4nc(-c5cccnc5)nc5[nH]ncc45)ccc3Cl)cc2C(F)(F)F)CC1 |  |  | 567 | 1350 |  |  | 
CN1CCN(Cc2ccc(NC(=O)c3cccc(Oc4nc(-c5ccncc5)nc5c4cnn5C)c3)cc2C(F)(F)F)CC1 |  |  |  |  |  | 74.9 | 94.1
CN1CCN(Cc2ccc(NC(=O)c3cc(Oc4nc(-c5ccncc5)nc5c4cnn5C)ccc3Cl)cc2C(F)(F)F)CC1 |  |  | 108 | 130 |  |  | 
Cc1ccc(C(=O)Nc2ccc(CN3CCN(C)CC3)c(C(F)(F)F)c2)cc1Oc1nc(Nc2ccccc2)nc2c1cnn2C |  |  | 123 | 70 |  |  | 
CN1CCN(Cc2ccc(NC(=O)c3cc(Oc4nc(-c5cccnc5)nc5c4cnn5C)ccc3Cl)cc2C(F)(F)F)CC1 |  |  | 4170 | 4020 |  |  | 
CN1CCN(Cc2ccc(C(=O)Nc3cccc(Oc4nc(-c5ccncc5)nc5[nH]ncc45)c3)cc2C(F)(F)F)CC1 |  |  | 79 | 299 |  |  | 
Cc1cn(-c2cc(NC(=O)c3ccc(C)c(Oc4nc(-c5cccnc5)nc5c4cnn5C)c3)cc(C(F)(F)F)c2)cn1 |  |  | > 10000 | > 10000 |  |  | 
Cc1ccc(C(=O)Nc2cc(CN3CCN(C)CC3)cc(C(F)(F)F)c2)cc1Oc1nc(-c2cccnc2)nc2c1cnn2C |  |  | 264 | 482 |  |  | 
CN1CCN(Cc2ccc(C(=O)Nc3cccc(Oc4nc(-c5ccncc5)nc5c4cnn5C)c3)cc2C(F)(F)F)CC1 |  |  | 140 | 106 |  |  | 
Cc1ccc(Oc2nc(-c3cccnc3)nc3c2cnn3C)cc1C(=O)Nc1ccc(CN2CCN(C)CC2)c(C(F)(F)F)c1 |  |  |  |  |  | 87.5 | 100
COc1cc2nccc(Oc3ccc(NC(=O)C4(C(=O)Nc5ccc(F)cc5)CC4)cc3)c2cc1OC [CABOZANTINIB] | 1000 | 1210 | 29 |  | 7910 |  | 
Cc1ccc(C(=O)Nc2ccc(CN3CCN(C)CC3)c(C(F)(F)F)c2)cc1Oc1nc(-c2ccncc2)nc2[nH]ncc12 |  |  | 73 | 240 |  |  | 
Cc1ccc(Oc2nc(-c3cccnc3)nc3[nH]ncc23)cc1NC(=O)c1ccc(CN2CCN(C)CC2)c(C(F)(F)F)c1 |  |  | 2370 | 3890 |  |  | 
Cc1ccc(C(=O)Nc2ccc(CN3CCN(C)CC3)c(C(F)(F)F)c2)cc1Oc1nc(-c2cccc(Cl)c2)nc2c1cnn2C |  |  | 807 | 320 |  |  | 
Cc1ccc(Oc2nc(-c3cccnc3)nc3c2cnn3C)cc1NC(=O)c1ccc(CN2CCN(C)CC2)c(C(F)(F)F)c1 |  |  | 4170 | 4420 |  |  | 
CO[C@]1(C(=O)N[C@@H](C)c2ccc(-n3cc(F)cn3)nc2)CC[C@H](c2nc(C)cc(Nc3cc(C)[nH]n3)n2)CC1 [PRALSETINIB] | < 4 | < 4 | < 4 | < 4 | 1270 |  | 
CN1CCN(Cc2ccc(NC(=O)c3cccc(Oc4nc(-c5cccnc5)nc5c4cnn5C)c3)cc2C(F)(F)F)CC1 |  |  |  |  |  | 56.5 | 65.5
CN1CCN(Cc2ccc(C(=O)Nc3cc(Oc4nc(-c5ccncc5)nc5c4cnn5C)ccc3Cl)cc2C(F)(F)F)CC1 | > 10000 | 8190 | 16 | 114 | 3400 |  | 
CN1CCN(Cc2ccc(C(=O)Nc3cccc(Oc4nc(-c5cccnc5)nc5[nH]ncc45)c3)cc2C(F)(F)F)CC1 |  |  | 342 | 820 |  |  | 
CN1CCN(Cc2ccc(C(=O)Nc3cc(Oc4nc(-c5cccnc5)nc5c4cnn5C)ccc3Cl)cc2C(F)(F)F)CC1 |  |  | 2070 | 1390 |  |  | 
Cc1ccc(C(=O)Nc2cccc(C(F)(F)F)c2)cc1Oc1nc(-c2cccnc2)nc2c1cnn2C |  |  | 1970 | 2240 |  |  | 
Cc1cn(-c2cc(NC(=O)c3ccc(C)c(Oc4nc(-c5ccncc5)nc5c4cnn5C)c3)cc(C(F)(F)F)c2)cn1 |  |  | 1570 | 2620 |  |  | 
Cc1ccc(Oc2nc(-c3ccncc3)nc3[nH]ncc23)cc1NC(=O)c1ccc(CN2CCN(C)CC2)c(C(F)(F)F)c1 | 1890 | 757 | 4 | 4 | 3450 |  | 

Further lines, with some results ahead:

GI50 (BaF3) [nM] | GI50 [1] [nM] | GI50 [2] [nM] | GI50 [4] [nM] | Structure (SMILES) | GI50 at 48 h [3] [nM] | Survival [5] [%] | Survival [6] [%]
220 | 90 | 39 | 36 | Cc1ccc(C(=O)Nc2ccc(CN3CCN(C)CC3)c(C(F)(F)F)c2)cc1Oc1nc(-c2ccncc2)nc2c1cnn2C | 2620 |  | 
 |  | 847 | 152 | Cc1ccc(-c2nc(Oc3cc(C(=O)Nc4ccc(CN5CCN(C)CC5)c(C(F)(F)F)c4)ccc3C)c3cnn(C)c3n2)cc1 |  |  | 
 |  | 696 | 114 | Cc1ccc(C(=O)Nc2ccc(CN3CCN(C)CC3)c(C(F)(F)F)c2)cc1Oc1nc(-c2ccc(Cl)cc2)nc2c1cnn2C |  |  | 
4870 | 4210 | 13 | 6 | Cc1ccc(Oc2nc(-c3ccncc3)nc3c2cnn3C)cc1NC(=O)c1ccc(CN2CCN(C)CC2)c(C(F)(F)F)c1 | 2780 |  | 
529 | 290 | 75 | 14 | Cc1ccc(C(=O)Nc2ccc(CN3CCN(C)CC3)c(C(F)(F)F)c2)cc1Oc1nc(-c2ccoc2)nc2c1cnn2C | > 10000 |  | 
 |  | 617 | 469 | Cc1ccc(NC(=O)c2ccc(CN3CCN(C)CC3)c(C(F)(F)F)c2)cc1Oc1nc(-c2ccncc2)nc2c1cnn2C |  |  | 
 |  | 1520 | 440 | Cc1ccc(Oc2nc(-c3ccncc3)nc3c2cnn3C)cc1C(=O)Nc1ccc(CN2CCN(C)CC2)c(C(F)(F)F)c1 |  |  | 
499 | 274 | 178 | 28 | Cc1ccc(C(=O)Nc2ccc(CN3CCN(C)CC3)c(C(F)(F)F)c2)cc1Oc1nc(-c2cccc(O)c2)nc2c1cnn2C | 2640 |  | 
 |  | 348 | 98 | Cc1ccc(C(=O)Nc2ccc(CN3CCN(C)CC3)c(C(F)(F)F)c2)cc1Oc1nc(-c2ccccc2)nc2c1cnn2C |  |  | 
 |  | 166 | 57 | Cc1ccc(C(=O)Nc2ccc(CN3CCN(C)CC3)c(C(F)(F)F)c2)cc1Oc1nc(-c2ccc(O)cc2)nc2c1cnn2C |  |  | 
736 | 564 | 449 | 36 | Cc1ccc(C(=O)Nc2ccc(CN3CCN(C)CC3)c(C(F)(F)F)c2)cc1Oc1nc(-c2ccsc2)nc2c1cnn2C | 5070 |  | 
 |  | 477 | 411 | Cc1ccc(NC(=O)c2ccc(CN3CCN(C)CC3)c(C(F)(F)F)c2)cc1Oc1nc(-c2cccnc2)nc2c1cnn2C |  |  | 
 |  | > 10000 | > 10000 | CCn1ncc2c(Oc3cc(C(=O)Nc4ccc(CN5CCN(C)CC5)c(C(F)(F)F)c4)ccc3C)nc(-c3ccncc3)nc21 |  |  | 
 |  | 1100 | 915 | Cc1ccc(C(=O)Nc2ccc(CN3CCN(C)CC3)c(C(F)(F)F)c2)cc1Oc1nc(-c2ccncc2)nc2c1cnn2C(C)C |  |  | 
136 | 113 | 39 | 35 | Cc1ccc(C(=O)Nc2ccc(CN3CCN(C)CC3)c(C(F)(F)F)c2)cc1Oc1nc(-c2cccnc2)nc2c1cnn2C | 1290 |  | 

From ChEMBL document CHEMBL4706552, “Discovery of 4-methyl-N-(4-((4-methylpiperazin- 1-yl)methyl)-3-(trifluoromethyl)phenyl)-3-((6-(pyridin-3-yl)-1H-pyrazolo[3,4-d]pyrimidin-4-yl)-oxy)benzamide as a potent inhibitor of RET and its gatekeeper mutant” (Eur J Med Chem, 2020)
